# Measured values as given in patent US20170007561A1, “CONTEMPORANEOUS, HETEROGENEOUSLY-ORIENTED, MULTI-TARGETED THERAPEUTIC MODIFICATION AND/OR MODULATION OF DISEASE BY ADMINISTRATION OF SULFUR-CONTAINING, AMINO ACID-SPECIFIC SMALL MOLECULES” (BioNumerik Pharmaceuticals, Inc., priority 2014, published 2017).
# “Also recorded” adds a separate entry of the source.
# How the values were obtained:
# [1] = system: bovine brain microtubule protein (α-/β-tubulin); assay: Electron microscopy of microtubule polymerization reactions; format: biochemical; conditions: presence and absence of paclitaxel
# Method: (1 mM/1 mM/6 μM (v/v/v)). Electron micrograph samples were prepared by gently mixing samples of reactions with an equal volume of 50% sucrose in buffer P (0.1 M PIPES, 1 mM EGTA, pH 6.5) and mounting on carbon-coated grids (400 mesh formvar/carbon, Electron Microscopy Sciences). Grids were washed with cytochrome c (1%) and water and stained with uranyl acetate (1%). Electron microscopy was performed using a Philips 208S electron microscope (Philips Instruments) at an accelerating voltage of 60 kV. Micrographs were taken at 36,000× and 7,000× magnifications.
# [2] = biological target: Aminopeptidase N (Homo sapiens, UniProt P15144); assay: Aminopeptidase N activity (summary Table 27); format: biochemical
# [3] = system: bovine brain microtubule protein (α-/β-tubulin); assay: Microtubule protein polymerization assay (OD350); format: biochemical
# [4] = biological target: recombinant human Prx 1 (Homo sapiens, UniProt Q06830); assay: Prx assay coupled to Trx, TrxR and NADPH; format: biochemical; conditions: initial velocity
# Method: Prx activity in the buffer control (Apo-Prx) and the Tavocept-treated sample (Prx-mesna) was determined using the Prx assay outlined in FIG. 58. A typical assay mixture was 150 μL in final volume and contained HEPES Buffer (45 mM, pH 7.0, 1 mM EDTA), 350 μM NADPH, 0.12 μM rat liver TrxR, 80 μM insulin, 2.9 μM human Trx 1, and Prx (4.8 or 2.4 μM per assay). Assays were initiated by the addition of H2O2 (100 μM) and were monitored at 340 nm at 25° C. for 30 minutes using a using a Molecular Devices SpectraMax Plus UV/vis plate reader. Activity was calculated using a 4 minute linear portion of each assay and then this rate was converted into percent of control with the buffer treated Prx 1 reaction (Apo-Prx) serving as a 100% control. See, FIG. 59. […] This reduction in rate is approximately 43% in assays containing 2.4 μM Prx and 23% in assays containing 4.8 μM Prx. See, FIG. 59. […] Therefore, as the concentration of unmodified Prx increases, the turnover more nearly approaches the buffer control Apo-Prx samples.
# [5] = biological target: γ-Glutamyltranspeptidase (Homo sapiens, UniProt P19440); assay: γ-Glutamyltranspeptidase activity (summary Table 27); format: biochemical
# [6] = biological target: T1, Recombinant human peroxiredoxin 1 (Homo sapiens, UniProt Q06830); assay: LC-MS of trypsin or chymotrypsin digested Prx 1 after incubation with Tavocept; format: binding
# T1 construct: purchased SigmaAldrich
# T1 sequence (Q06830 1-199): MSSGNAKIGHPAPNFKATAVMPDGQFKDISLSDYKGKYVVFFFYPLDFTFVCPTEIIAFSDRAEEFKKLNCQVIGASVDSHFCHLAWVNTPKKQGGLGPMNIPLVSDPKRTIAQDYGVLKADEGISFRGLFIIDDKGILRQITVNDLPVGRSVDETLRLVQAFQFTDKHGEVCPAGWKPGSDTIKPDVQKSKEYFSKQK
# Method: Recombinant human peroxiredoxin 1 (purchased from SigmaAldrich; 333 μg; 0.015 micromoles) was reduced using an excess of dithiothreitol (DTT; 35 micromoles) in NH4HCO3 buffer (40 mM, pH 8.0) at 37° C. for 50 minutes (total reaction volume was 750 μL; final Prx concentration was 20 μM; and final DTT concentration was 46 mM). […] (total reaction volume was 500 μL). After 16-18 hours incubation, each reaction was removed and chromatographed using G25 Sephadex columns.
# In brief, the G25 chromatographed Prx1 incubation reactions were digested with Trypsin Gold. Trypsin Gold was dissolved in 400 μL of NH4HCO3 and 100 μL of acetonitrile. A 100-150 μL volume of this Trypsin Gold stock was then added to 500 μl of the aforementioned final sample with 75 μL of acetonitrile and then the reaction volume was adjusted to a total of 750 μL with NH4HCO3. The sample was incubated for 6 hours at 37° C. Chymotrypsin digests were by dissolving chymotrypsin in 1M HCL. A 50 μL volume of this chymotrypsin stock solution was added to added to 500 μl of the aforementioned final sample along with 10% (v/v) of CaCl2 (100 mM stock). NH4HCO3 buffer was then added to bring the total reaction volume to 750 μL. Chymotrypsin digests were incubated for 16 hours at 30° C. Following digest by either trypsin or chymotrypsin, reactions were lyophilized to dryness overnight and then resuspended in a minimal amount of HPLC grade water prior to LC MS analyses.
# A Symmetry C18 HPLC column (Waters, Franklin, Mass.; 3.5 μm; 4.6×75 mm) and a Waters Alliance liquid chromatography system (Waters 2695; Franklin, Mass.) coupled to a Micromass single quadropole mass detector (Micromass ZMD; Manchester, UK) were used to analyze fragments from trypsin or chymotrypsin digested human Prx1. The mobile phase contained 0.1% of formic acid throughout the run and the flow rate was 0.35 ml/min. […]
# [7] = biological target: T2, human glutaredoxin (Grx1) (Homo sapiens, UniProt P35754); assay: X-ray crystallography of Tavocept-derived mesna adduct on Grx; format: binding; conditions: Tavocept 40 mM, 4° C. overnight
# T2 construct: 6xHis (TEV-cleavable) (N, cleaved yes); made in house; host or cells: E. coli BL21 (RIPL)
# From the text: Diffraction data were collected at the Advanced Light Source (ALS) (Berkeley, Calif.). […] Data was processed using the program package MosFlm as part of the ccp4 program package.
# Data was indexed, integrated, scaled and merged using the program Mosflm. […] The solution was consistent with one molecule in the crystal asymmetric unit. […] The structure solution is supported by contiguous electron density for the entire chain trace of each molecule, landmark side chain density features matching the amino acid sequence including cysteines, absence of phi-psi violations and final R/Rfree values in the normal range. […] Residues Gln39 and Glu55 have missing side-chain atoms in the final structures (side chain atoms CD, CG, OE1, NE2 and CD, OE1, OE2, respectively).
# Sequence of γ-Glutamyltranspeptidase (P19440 whole entry): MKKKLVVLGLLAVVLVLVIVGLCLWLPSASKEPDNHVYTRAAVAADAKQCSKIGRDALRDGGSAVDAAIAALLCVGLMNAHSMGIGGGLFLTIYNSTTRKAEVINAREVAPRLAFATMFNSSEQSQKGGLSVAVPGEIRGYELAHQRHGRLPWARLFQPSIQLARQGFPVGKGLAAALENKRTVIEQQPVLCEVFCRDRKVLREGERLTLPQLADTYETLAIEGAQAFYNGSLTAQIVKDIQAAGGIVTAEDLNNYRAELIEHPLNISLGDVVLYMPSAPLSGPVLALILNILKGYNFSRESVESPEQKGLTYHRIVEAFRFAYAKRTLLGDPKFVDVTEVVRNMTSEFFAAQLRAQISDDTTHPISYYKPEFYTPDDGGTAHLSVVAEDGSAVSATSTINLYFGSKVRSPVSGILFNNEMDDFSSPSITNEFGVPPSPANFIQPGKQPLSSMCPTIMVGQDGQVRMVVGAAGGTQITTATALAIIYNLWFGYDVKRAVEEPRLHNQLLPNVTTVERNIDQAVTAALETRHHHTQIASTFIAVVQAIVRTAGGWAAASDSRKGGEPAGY
# Sequence of Aminopeptidase N (P15144 whole entry): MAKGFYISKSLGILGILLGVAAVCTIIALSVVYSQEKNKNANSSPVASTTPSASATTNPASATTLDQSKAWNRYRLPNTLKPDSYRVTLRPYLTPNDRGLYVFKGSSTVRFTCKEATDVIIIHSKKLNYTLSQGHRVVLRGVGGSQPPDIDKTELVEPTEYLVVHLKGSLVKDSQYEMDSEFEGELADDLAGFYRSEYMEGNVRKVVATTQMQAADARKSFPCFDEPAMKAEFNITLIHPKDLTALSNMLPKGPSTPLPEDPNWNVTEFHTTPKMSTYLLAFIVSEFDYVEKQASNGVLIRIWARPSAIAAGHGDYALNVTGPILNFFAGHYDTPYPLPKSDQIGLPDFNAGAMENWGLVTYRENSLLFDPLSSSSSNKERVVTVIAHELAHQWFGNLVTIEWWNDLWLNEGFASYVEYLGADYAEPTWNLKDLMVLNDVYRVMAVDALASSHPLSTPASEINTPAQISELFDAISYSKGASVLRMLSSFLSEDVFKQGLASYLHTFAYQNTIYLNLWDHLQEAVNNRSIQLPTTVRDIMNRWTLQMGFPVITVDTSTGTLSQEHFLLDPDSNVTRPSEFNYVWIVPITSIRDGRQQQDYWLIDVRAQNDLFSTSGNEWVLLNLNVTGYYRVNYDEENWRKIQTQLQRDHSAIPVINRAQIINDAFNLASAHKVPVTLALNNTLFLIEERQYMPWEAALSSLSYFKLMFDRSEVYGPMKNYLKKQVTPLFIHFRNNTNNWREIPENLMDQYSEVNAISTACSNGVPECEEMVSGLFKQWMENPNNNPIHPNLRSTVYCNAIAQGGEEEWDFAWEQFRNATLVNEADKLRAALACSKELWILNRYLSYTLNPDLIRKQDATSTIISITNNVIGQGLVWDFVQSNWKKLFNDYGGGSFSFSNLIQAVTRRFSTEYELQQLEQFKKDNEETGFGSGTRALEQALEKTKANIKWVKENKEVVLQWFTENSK
# T2 sequence (P35754 whole entry): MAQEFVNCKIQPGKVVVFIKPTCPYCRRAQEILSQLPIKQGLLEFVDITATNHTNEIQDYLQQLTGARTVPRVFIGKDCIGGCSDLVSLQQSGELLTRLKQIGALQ
structure (smiles),measurement,setting,value
"O=S(=O)([O-])CCSSCCS(=O)(=O)[O-].[Na+].[Na+] [Tavocept, disodium 2,2′-dithio-bis-ethane sulfonate]",abundance of microtubules on EM grids,"[1]; Tavocept preincubated 20 minutes, qualitative",reduction in the abundance of microtubules
same,microtubule morphology,[1]; Tavocept,no effects on overall gross microtubule morphology
same,Cellular consequence of BNP7787-modification and/or modulation: aminopeptidase N,[2],can inhibit γ-glutamyltranspeptidase and aminopeptidase N enzyme
same,inhibition of paclitaxel promoted microtubule protein polymerization,"[3]; 12 mM Tavocept, qualitative",approximately 50%
same,effect on paclitaxel-promoted microtubule protein hyperpolymerization,"[3]; Tavocept 1, 4, 8, 12 and 16 mM, paclitaxel 10 μM",inhibit paclitaxel-promoted microtubule protein hyperpolymerization in a dose-dependent manner; also recorded: normalizes
same,effect on GTP-catalyzed polymerization of microtubule protein,"[3]; Tavocept 4, 6, 8, and 10 mM preincubated with microtubule protein on ice for 20 minutes",dose-dependent inhibitory effect; also recorded: inhibit GTP-catalyzed polymerization; also recorded: modulate tubulin polymerization in a concentration dependent manner
same,effect on paclitaxel/GTP/MgCl2-catalyzed microtubule protein hyperpolymerization,"[3]; Tavocept 6, 8, 10 and 12 mM",inhibit paclitaxel/GTP/MgCl2-catalyzed microtubule protein hyperpolymerization in a dose dependent manner
same,Tavocept concentration at which final polymerization with paclitaxel was essentially equal to GTP control,[3]; paclitaxel 10 μM,≥ 6 mM
same,Tavocept concentrations that reproducibly inhibit paclitaxel promoted hyperpolymerization,[3]; paclitaxel 10 μM,> 1 mM
same,Tavocept concentrations giving net polymerization equivalent to GTP/MgCl2 only control,[3]; paclitaxel/GTP/MgCl2 10 μM/1 mM/1 mM,6 to 8 mM
same,activity of Tavocept-modified Prx versus Apo-Prx,[4],less active
same,Cellular consequence of BNP7787-modification and/or modulation: γ-glutamyltranspeptidase,[5],can inhibit γ-glutamyltranspeptidase and aminopeptidase N enzyme
same,Tavocept-derived mesna Adduct detected?,[6]; chymotryptic fragment VCPTEIIAF (Cys 52),Yes
same,Tavocept-derived mesna Adduct detected?,[6]; chymotryptic fragment […] (Cys 173),Yes
same,Tavocept-derived mesna Adduct detected?,[6]; tryptic fragment […] (Cys 173),Yes
same,Mesna adduct sites on Grx by X-ray,[7],Cys7 and Cys82
